Reference: patent publication US11275071B2, “Sensor dyes for real-time sensing of metal ions in aqueous environments” (UWM Research Foundation, Inc., priority 2015, dated 2022)

Key:
[1] = Metal response of PAN-7OH, absorbance at pH 7; assay type: binding; conditions: 25 μM PAN-7OH, 250 μM metal ion, pH 7 buffer, 2 mM Triton X-100
Protocol: (§1) Solutions were made containing 25 μM PAN-7OH and 250 μM metal ion (excess amount) in pH 7 buffer containing 2 mM Triton X-100.

[2] = Metal response of PAN-7OH, absorbance at pH 7; assay type: binding; conditions: 25 μM PAN-7OH, 250 μM metal ion, pH 7 buffer, 2 mM Triton X-100; remark: listed apart in the source
Protocol: as §1

[3] = Metal response of PAN-7OH, absorbance at pH 7; assay type: binding; conditions: 25 μM PAN-7OH, 250 μM metal ion, pH 7 buffer, 2 mM Triton X-100; remark: listed apart in the source
Protocol: as §1

[4] = Metal response of PAN-7OH, absorbance at pH 7; assay type: binding; conditions: 25 μM PAN-7OH, 250 μM metal ion, pH 7 buffer, 2 mM Triton X-100; remark: listed apart in the source
Protocol: as §1

[5] = Metal response of PAN-7OH, absorbance at pH 7; assay type: binding; conditions: 25 μM PAN-7OH, 250 μM metal ion, pH 7 buffer, 2 mM Triton X-100; remark: listed apart in the source
Protocol: as §1

[6] = Metal response of PAN-7OH, absorbance at pH 7; assay type: binding; conditions: 25 μM PAN-7OH, 250 μM metal ion, pH 7 buffer, 2 mM Triton X-100; remark: listed apart in the source
Protocol: as §1

[7] = Metal response of PAN-7OH, absorbance at pH 7; assay type: binding; conditions: 25 μM PAN-7OH, 250 μM metal ion, pH 7 buffer, 2 mM Triton X-100; remark: listed apart in the source
Protocol: as §1

[8] = Metal response of PAN-7OH, absorbance at pH 7; assay type: binding; conditions: 25 μM PAN-7OH, 250 μM metal ion, pH 7 buffer, 2 mM Triton X-100; remark: listed apart in the source
Protocol: as §1

[9] = Metal response of PAN-7OH, absorbance at pH 7; assay type: binding; conditions: 25 μM PAN-7OH, 250 μM metal ion, pH 7 buffer, 2 mM Triton X-100; remark: listed apart in the source
Protocol: as §1

[10] = Metal response of PAN-7OH, absorbance at pH 7; assay type: binding; conditions: 25 μM PAN-7OH, 250 μM metal ion, pH 7 buffer, 2 mM Triton X-100; remark: listed apart in the source
Protocol: as §1

[11] = Metal response of PAN-7OH, absorbance at pH 7; assay type: binding; conditions: 25 μM PAN-7OH, 250 μM metal ion, pH 7 buffer, 2 mM Triton X-100; remark: listed apart in the source
Protocol: as §1

[12] = Metal response of PAN-7OH, absorbance at pH 7; assay type: binding; conditions: 25 μM PAN-7OH, 250 μM metal ion, pH 7 buffer, 2 mM Triton X-100; remark: listed apart in the source
Protocol: as §1

[13] = Metal response of PAN-7OH, absorbance at pH 7; assay type: binding; conditions: 25 μM PAN-7OH, 250 μM metal ion, pH 7 buffer, 2 mM Triton X-100; remark: listed apart in the source
Protocol: as §1

[14] = Protonation states of free PAN-7OH, pKA; assay type: physicochemical; conditions: free dye; site 1-OH (Metal Binding)
Protocol: The acid dissociation constants (pKA) and spectral profiles were determined for PAN-70H. PAN-7OH has three protonation sites: The heterocyclic nitrogen in the pyridyl moiety, and the two hydroxyl groups on the naphthalene ring. […] The latter group can potentially be used for covalent attachment of the sensor to a substrate.
The buffer reagents were treated with Chelex-100 to remove trace metal impurities. The samples were prepared containing 25 μM PAN-7OH in a 0.1 M pH buffer containing 2 mM Triton X-100 surfactant.
The data was analyzed using ReactLab Equilibria to determine the resulting pKA values. PAN-7OH has three protonation sites, so four species were used for the analysis model. The pKA values were assigned using values from well-known molecules with a similar structure. […] No error propagation calculations were performed here.

[15] = Protonation states of Zn-(PAN-7OH) complexes

Oc1ccc2ccc(O)c(N=Nc3ccccn3)c2c1 [PAN-7OH]
absorbance change relative to the free dye [1]: red-shifted absorbance | absorbance change relative to the free dye ([1]; minor): red-shifted absorbance | absorbance change relative to the free dye [2]: red-shifted absorbance | absorbance change relative to the free dye [3]: red-shifted absorbance | absorbance change relative to the free dye [4]: red-shifted absorbance | absorbance change relative to the free dye [5]: red-shifted absorbance | absorbance change relative to the free dye [6]: red-shifted absorbance | absorbance change relative to the free dye [7]: blue-shifted absorbance | absorbance change relative to the free dye [8]: blue-shifted absorbance | absorbance change relative to the free dye [9]: did not exhibit an appreciable absorbance change | absorbance change relative to the free dye [10]: did not exhibit an appreciable absorbance change | absorbance change relative to the free dye [11]: did not exhibit an appreciable absorbance change | absorbance change relative to the free dye [12]: did not exhibit an appreciable absorbance change | absorbance change relative to the free dye [13]: did not exhibit an appreciable absorbance change | pKA [14]: 12.258 | pH at which the Zn-(PAN-7OH) complexes decomposed, strongly alkaline conditions [15]: > 12 pH | pH at which the Zn-(PAN-7OH) complexes decomposed, weakly acidic conditions [15]: < 6 pH | Acidic Dissociation ([15]; Zn(PAN-7OH)2H2 decomposition under acidic conditions, midpoint of species distribution curve): 5.272 | Alkaline Dissociation ([15]; Zn(PAN-7OH)2^2− decomposition, zinc hydroxide formation, strongly alkaline conditions, midpoint of curve): 13.164 | Complex pKA ([15]; non-binding hydroxyl group in the Zn-(PAN-7OH) complex, 20 μM PAN-7OH, 20 μM zinc): 10.449
